Source: patent US20220008402A1, “INCREASED E-CADHERIN EXPRESSION OR ACTIVITY FOR THE TREATMENT OF INFLAMMATORY DISEASES” (The Cleveland Clinic Foundation, priority 2020, published 2022)
“Also recorded” adds a separate entry of the source.

Experiments:
Type in all cases: cell-based, human
T84 cell monolayers [1] = experiment: Immunofluorescence labeling of adherens and tight junctions (E-cadherin, ZO-1)
Experimental: (§1) FIG. 5: E-cadherin-enhancing drugs prevent cytokine-induced disruption of epithelial adherens junctions. Confluent T84 cell monolayers were pretreated with either vehicle, or ECU (10 μM) for 24 hours. Afterwards, cells were exposed to a combination of TNFα (10 ng/ml) and IFNγ (50 ng/ml) with and without ECU for 48 h. Cells were fixed and structure of adherens was determined by immunolabeling of E-cadherin. Arrows point on disruption of normal E-cadherin labeling in cytokine-exposed, vehicle-treated cells.
as §1, with “FIG. 6:” for “FIG. 5:”, “epithelial tight” for “epithelial adherens”, “with or” for “with and”, “of tight junctions” for “of adherens”, “by ZO-1 immunolabeling.” for “by immunolabeling of E-cadherin.”, “normal ZO-1” for “normal E-cadherin”
In order to visualize structure of epithelial junctions, cultured colonic epithelial cell monolayers were fixed and permeabilized with 100% methanol at −20° C. Fixed samples were blocked for 60 min in HBSS containing 1% bovine serum albumin, followed by a 60-min incubation with primary antibodies against E-cadherin (BD Bioscience) and ZO-1 (Thermo-Fisher). Samples were then washed and incubated with Alexa-Fluor-488-conjugated donkey anti-rabbit and Alexa-Fluor-555—conjugated donkey anti-mouse secondary antibodies for 60 min, rinsed with blocking buffer, and mounted on slides with ProLong Antifade mounting reagent (Thermo-Fisher). Immunolabeled cell monolayers were imaged using a Leica SP8 confocal microscope (Wentzler, Germany). The Alexa Fluor 488 and 555 signals were acquired sequentially in frame-interlace mode to eliminate cross talk between channels. Images were processed using Adobe Photoshop. The images shown are representative of at least three experiments, with multiple images taken per slide. […]

T84 cell monolayers [2] = experiment: Cytokine-induced apoptosis, immunoblotting of PARP, cleaved PARP, cleaved caspase-3; details: 10 μM pretreatment 24 h, then IFNγ 50 ng/ml alone or with TNFα 10 ng/ml, 48 h
Experimental: FIG. 7: E-cadherin-enhancing drugs attenuate cytokine-induced cell death. Confluent T84 cell monolayers were pretreated with either vehicle, or ECU (10 μM) for 24 h. Afterwards, cells were exposed to either IFNγ (50 ng/ml) alone, or its combination with TNFα (10 ng/ml) with and without addition of ECU for additional 48h. Cell were lysed and levels of different apoptotic markers were determined by immunoblotting analysis.
To prepare total cell lysates, epithelial cell monolayers were scraped and homogenized using a Dounce homogenizer in RIPA buffer (20 mM Tris, 50 mM NaCl, 2 mM EDTA, 2 mM EGTA, 1% sodium deoxycholate, 1% Triton X-100 (TX-100), and 0.1% SDS, pH 7.4) containing protease inhibitor cocktail and phosphatase inhibitor cocktails 2 and 3 (Sigma-Aldrich). The obtained total cell lysates were cleared by centrifugation (20 min at 14,000×g), diluted with 2×SDS sample loading buffer and boiled. SDS-polyacrylamide gel electrophoresis was conducted using a standard protocol with equal amounts of total protein (10 or 20 μg) loaded per each lane. The separated proteins were transferred to nitrocellulose membranes and the membranes were blocked with 5% non-fat milk. […]

T84 cell monolayers [3] = experiment: Wound healing assay; details: 10 μM pretreatment 24 h, migration 24-48 hours
Experimental: FIG. 8: E-cadherin-enhancing drug promote collective migration of intestinal epithelial cells. Confluent T84 cell monolayers were pretreated with either vehicle, ECU (10 μM) or ML327 (10 μM) for 24 hours. Afterwards, cell monolayers were wounded and allowed to migrate into wound area in the presence of the drugs. Cell monolayers were photographed and wound closure was calculated at the indicated times. Data is presented as mean ±SE (n=3); **P<0.05, ***P<0.01.
Confluent epithelial cell monolayers were mechanically wounded by making a thin scratch wound with a 200 μl pipette tip. The bottom of the well was marked to define the position of the wound and the monolayers were supplied with fresh cell culture medium. The images of a cell-free area at the marked region were acquired at the indicated times after wounding using an inverted bright field microscope equipped with a camera. The percentage of wound closure was calculated using an Image J software (NIH, Bethesda, Md.).
Finally, the effects of E-cadherin-enhancing drugs on epithelial restitution (wound healing) were examined. This is an important question given the fact that epithelial wounds are frequently formed in inflamed intestinal mucosa of IBD patients and wound healing is necessary to restore the integrity of the gut barrier and to achieve remission of chronic inflammatory diseases. […]

[4] = 10 μM pretreatment 24 h, then TNFα 10 ng/ml + IFNγ 50 ng/ml, 48 h

Compound: O=C(NCCCCc1ccncc1)c1cc(-c2ccco2)on1 [ECU]
- Cytokine-induced adherens junction (AJ) disassembly, E-cadherin immunolabeling (T84 cell monolayers [1]; [4]): dramatic suppression of cytokine-induced disruption of adherens junctions; also recorded: completely prevented cytokine-induced junctional disassembly
- Cytokine-induced tight junction (TJ) disassembly, ZO-1 immunolabeling (T84 cell monolayers [1]; [4]): inhibition of cytokine-induced tight junction disruption; also recorded: completely prevented cytokine-induced junctional disassembly
- Normal AJ and TJ structure (T84 cell monolayers [1]; 10 μM, without cytokines): little effect
- Cytokine-induced apoptosis (PARP cleavage, caspase-3 activation) (T84 cell monolayers [2]): prevented cytokine-induced PARP cleavage and caspase-3 activation
- Cell migration during wound healing (wound closure) (T84 cell monolayers [3]): significantly increased migration
